Assay results as given in patent US8969378B2, “Inhibitor of the differentiation of T cells into Th1 cells” (Kowa Co., Ltd., priority 2007, dated 2015).

How the values were obtained:
[1] = system: Th1 cells derived from spleen cells of MOG-immunized mice; test: Inhibition of activation of Th1 cells: IFN-γ production by MOG-stimulated spleen cells of EAE mice (ELISA); format: cell-based, C57BL/6 mice; conditions: FIG. 1; for concentration that significantly reduced the amount of IFN-γ produced by Th1 cells (inhibited activation of Th1 cells): spleen cells of MOG-immunized EAE mice, day 14, stimulated with MOG, IFN-γ in supernatant by ELISA
Method: Five C57BL/6 mice were immunized with myelin oligodendrocyte glycoprotein (MOG), and mice with experimental autoimmune encephalomyelitis ([…] model of multiple sclerosis) were prepared in a conventional manner. On day 14 after immunization, spleen cells were collected from each mouse and cultured in a 24-well culture plate coated with CD3 and CD28 antibodies, and then stimulated with MOG in the presence of pitavastatin or atorvastatin, to thereby activate Th1 cells. The Th1 cytokine (IFN-γ) concentration of the supernatant of the resultant cell culture was determined through ELISA.

human T cells = test: Differentiation of peripheral blood T cells into Th1 / Th2 cells (IL-12, anti-CD3/CD28, flow cytometry); format: cell-based; conditions: FIG. 2; for concentration exhibiting the effect of inhibiting differentiation of T cells into Th1 cells / concentration exhibiting the effect of promoting differentiation of T cells into Th2 cells: human peripheral blood cells, IL-12 100 ng/mL, four days; for concentration exhibiting the effect of inhibiting differentiation of T cells into Th1 cells: CD4-positive IFN-γ-positive cells; for concentration exhibiting the effect of promoting differentiation of T cells into Th2 cells: CD4-positive IL-4-positive cells
Method: Peripheral blood (10 mL) was collected from six healthy adults in heparin, and […] were isolated through the Ficol-Hypaque method (i.e., a customary method). The thus-isolated cells were diluted to 1×10^6/mL and then inoculated into a 24-well culture plate coated with CD3 and CD28 antibodies (Falcon), followed by culturing for four days in the presence of IL-12 (100 ng/mL), to thereby induce differentiation of T cells into Th1 cells. Atorvastatin or pitavastatin (0.01 to 10 μM) was added at the time of initiation of culturing, and the effect of each drug on differentiation of T cells into Th1 cells was examined. After completion of culturing, cells were washed thrice with PBS, and cytokines (IFN-γ and IL-4) in the cells and CD4 on the surfaces of the cells were stained in a conventional manner. The ratio of Th1 (CD4-positive, IFN-γ-positive cells) or Th2 (CD4-positive, IL-4-positive cells) to all the CD4-positive T cells was determined through flow cytometry.
Specifically, lymphocytes were stimulated with anti-CD3 antibody and anti-CD28 antibody, and the amounts of INF-γ (Th1 cytokine) and IL-4 (Th2 cytokine) in the cells were determined through flow cytometry, to thereby compare pitavastatin with atorvastatin in terms of the effect of inhibiting differentiation of peripheral blood T cells into Th1 cells, and the effect of promoting differentiation of peripheral blood T cells into Th2 cells.

Row | SMILES | concentration that significantly reduced the amount of IFN-γ produced by Th1 cells (inhibited activation of Th1 cells) [1] [µM] | concentration exhibiting the effect of inhibiting differentiation of T cells into Th1 cells (human T cells) | concentration exhibiting the effect of promoting differentiation of T cells into Th2 cells (human T cells) | effect of inhibiting activation of Th1 cells relative to atorvastatin ([1]; versus atorvastatin, from amount of IFN-γ produced) [fold] | Th1/Th2 ratio improving effect relative to atorvastatin (human T cells; versus atorvastatin) [fold] | effect of promoting differentiation of T cells into Th2 cells relative to atorvastatin (human T cells; versus atorvastatin) [fold]
1 | CC(C)c1c(C(=O)Nc2ccccc2)c(-c2ccccc2)c(-c2ccc(F)cc2)n1CC[C@@H](O)C[C@@H](O)CC(=O)O [atorvastatin] | 25 | at least 10 μM | at least 10 μM | – | – | –
2 | O=C(O)C[C@H](O)C[C@H](O)/C=C/c1c(C2CC2)nc2ccccc2c1-c1ccc(F)cc1 [pitavastatin, (3R,5S,6E)-7-[2-cyclopropyl-4-(4-fluorophenyl)-3-quinolyl]-3,5-dihydroxy-6-heptenoic acid] | ≥ 10 | 1 µM | 1 µM | 2.5 | 10 | 10
